From PubChem BioAssay (NCI)
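How tested: cells in 96-well plates exposed to compound for 48 hours at five concentrations. Definition used: TGI = concentration required for complete inhibition of growth.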

Legend:
Assay in all cases: inhibition of tumour cell growth, NCI panel, 48 h
HS 578T breast = tested on: HS 578T breast
MCF7 breast = tested on: MCF7 breast
786-0 renal = tested on: 786-0 renal
LXFL 529 NSCLC = tested on: LXFL 529 NSCLC
SW-620 colon = tested on: SW-620 colon
UACC-62 melanoma = tested on: UACC-62 melanoma
SK-OV-3 ovarian = tested on: SK-OV-3 ovarian
PC-3 prostate = tested on: PC-3 prostate
DMS 273 small cell lung = tested on: DMS 273 small cell lung
HCT-15 colon = tested on: HCT-15 colon

| SMILES | TGI (HS 578T breast) [µM] | TGI (MCF7 breast) [µM] | TGI (786-0 renal) [µM] | TGI (LXFL 529 NSCLC) [µM] | TGI (SW-620 colon) [µM] | TGI (UACC-62 melanoma) [µM] | TGI (SK-OV-3 ovarian) [µM] | TGI (PC-3 prostate) [µM] | TGI (DMS 273 small cell lung) [µM] | TGI (HCT-15 colon) [µM] |
| --- | --- | --- | --- | --- | --- | --- | --- | --- | --- | --- |
| CS(=O)(=O)c1nc(Cl)c(Cl)c(C#N)c1Cl | > 58.7 | 13.2 | 4.11 | 2.99 | 3.13 | 10.8 | 10.7 | 11.6 | 24.6 | 3.5 |
| CP(C)C.[Ag][I] |  |  | > 100 | 31.8 | > 100 | > 100 | > 100 |  | > 100 | > 100 |
| CCOC(=O)N1CCC(=O)C[C@@H]1C/C=C/P1(=O)O[C@H](c2ccccc2)C(C)N1C(C)C (some centres not stated) |  |  | > 100 | > 100 | > 100 | > 100 | > 100 |  | > 100 | > 100 |
| O=C1c2ccccc2C(=O)c2sc(Nc3ccc(Cl)c(Cl)c3)nc21 | 53.2 |  | 3.59 | 3.53 | 3.19 | 7.94 | 32.1 |  | 22.1 | 5.06 |
| COC(=O)C1=Cc2c(OC)cc(OC)c(OC)c2[C@H](c2cc(OC)c(OC)cc2OC)C1C(=O)OC (some centres not stated) |  |  | > 100 | > 100 | > 100 | > 100 | > 100 |  | > 100 | > 100 |
| CCOC(=O)C1CC/C(=C(/C#N)C(=O)OC)N1 (configuration not stated) |  |  | > 100 | > 100 | > 100 | > 100 | > 100 |  | > 100 | > 100 |
| Cc1cc2c(cc1C)[n+]([O-])c(-c1c(Cl)cccc1Cl)c(N)[n+]2[O-] |  |  | > 100 | > 100 | > 100 | > 100 | > 100 |  | 86.3 | > 100 |
| CC(C)NC(=O)O/N=C1\CCC2[C@@H]3CC=C4C[C@@H](OC(=O)NC(C)C)CC[C@]4(C)C3CC[C@]12C (some centres not stated) |  |  | 4.01 | 2.13 | 3.72 | 3.18 | 13.5 |  | 2.82 | 3.08 |
| CCOC(=O)C1(Cc2ccc3ccccc3c2)CCCCCN1 (configuration not stated) |  |  | 34.2 | > 100 | 64.9 | > 100 | > 100 |  | 38.4 | 41.4 |
